These results are taken from article PMC4922860, “Atypical calcium regulation of the PKD2-L1 polycystin ion channel” (eLife, 2016).

Molecules are shown by their SMILES. Changes are numbered by the printed parent chain.

Common to all, as to type: cell-based
Experiment [1] addresses T1, human PKD2-L1, homomeric channel (Homo sapiens, UniProt Q9P0L9, D523N).
T1 construct: gene PKD2L1; full-length isoform 1 in pTracer CMV2, transiently transfected HEK 293T cells; homotetramer; whole-cell patch clamp
T1 sequence (Q9P0L9 1-805 D523N): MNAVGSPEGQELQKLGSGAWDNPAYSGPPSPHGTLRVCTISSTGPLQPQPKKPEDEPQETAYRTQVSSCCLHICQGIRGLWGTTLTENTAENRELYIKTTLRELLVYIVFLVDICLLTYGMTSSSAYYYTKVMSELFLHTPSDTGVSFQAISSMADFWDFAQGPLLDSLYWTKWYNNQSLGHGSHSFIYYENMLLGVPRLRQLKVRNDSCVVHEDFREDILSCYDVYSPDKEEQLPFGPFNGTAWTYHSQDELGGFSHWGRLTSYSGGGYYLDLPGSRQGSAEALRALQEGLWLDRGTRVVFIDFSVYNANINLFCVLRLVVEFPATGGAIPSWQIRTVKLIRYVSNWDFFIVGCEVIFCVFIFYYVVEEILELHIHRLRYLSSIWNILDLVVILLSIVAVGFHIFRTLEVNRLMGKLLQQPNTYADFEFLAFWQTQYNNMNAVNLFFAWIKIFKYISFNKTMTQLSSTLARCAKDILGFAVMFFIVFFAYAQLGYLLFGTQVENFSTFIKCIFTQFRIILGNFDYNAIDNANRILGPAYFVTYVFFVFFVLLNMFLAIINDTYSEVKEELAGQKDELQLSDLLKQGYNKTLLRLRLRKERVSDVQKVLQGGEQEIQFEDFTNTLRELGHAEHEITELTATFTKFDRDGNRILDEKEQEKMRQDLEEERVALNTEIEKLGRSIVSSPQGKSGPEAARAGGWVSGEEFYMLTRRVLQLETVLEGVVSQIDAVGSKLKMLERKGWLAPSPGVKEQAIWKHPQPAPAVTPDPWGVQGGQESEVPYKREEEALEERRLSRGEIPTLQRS
The experiment in a line: whole-cell patch clamp, current potentiation, voltage ramps. For orientation: The patch-clamp technique gives a direct electrical read-out from membranes.

Experiment [2] addresses T2, human PKD2-L1 (Wt), homomeric channel (Homo sapiens, UniProt Q9P0L9).
T2 construct: gene PKD2L1; full-length isoform 1 in pTracer CMV2, transiently transfected HEK 293T cells; homotetramer; whole-cell patch clamp
T2 sequence (Q9P0L9 1-805): T1 sequence (Q9P0L9 1-805 D523N) with N523D
The experiment is described as above.

Experiment [3] concerns the target T1, human PKD2-L1, homomeric channel. The experiment in a line: whole-cell patch clamp, current block, voltage ramps, Hill fit.
In experiment [4] the target is T2, human PKD2-L1 (Wt), homomeric channel. Described as above.

The EC50 is the concentration giving half of the maximal effect. `Clc1ccc(C(c2ccc(Cl)cc2)n2cc[n+](CC(OCc3ccc(Cl)cc3Cl)c3ccc(Cl)cc3Cl)c2)cc1` (stereo not shown) [calmidazolium]: the results for the EC50 in experiment [1] and in experiment [2] were 9 ± 7 µM and 2600 ± 6000 nM, respectively.

Broadly, the IC50 is the midpoint of a concentration-inhibition curve. As to `CCCCOc1cc(C(=O)NCCN(CC)CC)c2ccccc2n1` [dibucaine], the IC50 in experiment [3] came to 23 ± 3 µM; in experiment [4] it was 31 ± 5 µM.
